{"source": "patent US20030180341A1", "about": "“Biocompatible hydrophilic films from polymeric mini-emulsions for application to skin” (priority 2002, published 2003)", "key": {"[1]": {"test": "Antifungal properties of films containing caprylic fatty acid", "details": "dried film"}, "[2]": {"test": "Antibacterial properties of films and mini-emulsions containing caprylic fatty acid"}, "[3]": {"test": "Anti-microbial effect of mini-emulsion/film compositions with sodium hypochlorite", "details": "provided in the mini-emulsion/film compositions, preferably between about 0.1 and about 0.5% by weight of solids"}}, "data": [{"compound": "CCCCCCCC(=O)O", "note": "[caprylic fatty acid]", "values": [{"measurement": "antifungal properties", "setting": "[1]", "value": "broad spectrum antifungal properties"}, {"measurement": "antibacterial effect", "setting": "[2]; dried film", "value": "mild antibacterial effect"}, {"measurement": "antibacterial properties", "setting": "[2]; liquid mini-emulsion", "value": "broad spectrum antibacterial properties"}]}, {"compound": "OCl", "note": "[sodium hypochlorite]", "values": [{"measurement": "anti-microbial effect", "setting": "[3]", "value": "effective as a broad spectrum anti-microbial"}]}]}
